Results as given in the NIST ThermoML archive (doi:10.1021/je700339f).

Details: Liquid

ClCCCCCl [1,4-dichlorobutane]
mass density [kg/m3]
Details | 288.15 K | 298.15 K | 308.15 K | 318.15 K
100 kPa | 1143.7 | 1133.7 | 1122.3 | 1112
500 kPa | 1144.1 | 1134 | 1122.7 | 1112.4
1000 kPa | 1144.5 | 1134.4 | 1123.1 | 1112.8
1500 kPa | 1144.8 | 1134.8 | 1123.5 | 1113.2
2000 kPa | 1145.2 | 1135.2 | 1123.9 | 1113.7
2500 kPa | 1145.5 | 1135.6 | 1124.3 | 1114.1
3000 kPa | 1145.9 | – | – | –
3100 kPa | – | 1136.1 | 1124.8 | 1114.7
3500 kPa | – | – | – | 1115
3600 kPa | 1146.4 | 1136.4 | 1125.2 | –
4100 kPa | 1146.7 | 1136.8 | 1125.6 | 1115.5
4600 kPa | 1147 | 1137.2 | 1126 | 1115.9
5100 kPa | 1147.4 | 1137.6 | 1126.4 | 1116.3
5600 kPa | 1147.7 | 1137.9 | 1126.9 | 1116.8
6100 kPa | 1148.1 | 1138.4 | 1127.2 | 1117.3
6600 kPa | 1148.5 | 1138.7 | 1127.5 | 1117.7
7100 kPa | 1148.9 | 1139.1 | 1128 | 1118.1
7600 kPa | 1149.2 | 1139.4 | 1128.4 | 1118.4
8100 kPa | 1149.5 | 1139.8 | 1128.8 | 1118.9
8600 kPa | 1149.9 | 1140.2 | 1129.2 | 1119.3
9200 kPa | 1150.3 | 1140.6 | 1129.6 | 1119.8
9600 kPa | 1150.7 | 1141 | 1130 | 1120.2
10100 kPa | 1151 | 1141.4 | 1130.4 | 1120.6
10600 kPa | 1151.3 | – | 1130.9 | 1121
10700 kPa | – | 1141.8 | – | –
11100 kPa | 1151.7 | 1142.1 | 1131.2 | 1121.4
11600 kPa | 1152 | 1142.4 | 1131.5 | 1121.8
12100 kPa | 1152.4 | 1142.8 | 1131.9 | 1122.1
12600 kPa | 1152.7 | 1143.2 | 1132.4 | 1122.6
13000 kPa | – | – | – | 1123
13100 kPa | 1153.1 | 1143.6 | 1132.6 | –
13500 kPa | 1153.3 | – | – | –
13600 kPa | – | 1143.9 | 1133.1 | 1123.3
14100 kPa | – | 1144.2 | 1133.5 | –
14200 kPa | 1153.8 | – | – | 1123.9
14700 kPa | 1154.1 | 1144.6 | 1133.9 | 1124.4
15100 kPa | – | – | 1134.2 | –
15200 kPa | 1154.4 | 1145 | – | 1124.7
15700 kPa | 1154.8 | 1145.4 | 1134.6 | 1125.1
16200 kPa | – | 1145.8 | 1135 | –
16300 kPa | 1155.2 | – | – | 1125.4
16700 kPa | – | 1146.1 | 1135.3 | –
16800 kPa | 1155.6 | – | – | 1126
17200 kPa | – | 1146.5 | 1135.7 | –
17300 kPa | 1155.9 | – | – | 1126.3
17800 kPa | 1156.2 | 1146.9 | 1136.1 | 1126.5
18300 kPa | 1156.5 | 1147.2 | 1136.5 | 1127
18800 kPa | 1156.8 | 1147.6 | 1136.8 | 1127.4
19100 kPa | 1157.1 | – | – | –
19200 kPa | – | 1147.9 | 1137.2 | 1127.7
19700 kPa | 1157.4 | 1148.2 | 1137.6 | 1128
20200 kPa | 1157.8 | 1148.7 | 1138 | 1128.4

ClCCCCCCCl [1,6-dichlorohexane]
mass density [kg/m3]
Details | 288.15 K | 298.15 K | 308.15 K | 318.15 K
100 kPa | 1073.7 | 1063.8 | 1054.6 | 1045.1
500 kPa | 1073.9 | 1064.2 | 1054.9 | 1045.3
1000 kPa | 1074.3 | 1064.4 | 1055.2 | 1045.7
1500 kPa | – | 1064.8 | 1055.5 | 1046.2
1600 kPa | 1074.6 | – | – | –
2000 kPa | 1075 | 1065.2 | 1055.9 | 1046.6
2500 kPa | 1075.3 | 1065.5 | 1056.3 | 1046.9
3100 kPa | 1075.7 | 1065.9 | 1056.7 | 1047.4
3600 kPa | 1076 | 1066.3 | 1057.1 | 1047.8
4100 kPa | 1076.3 | 1066.7 | 1057.4 | 1048.1
4500 kPa | – | 1066.9 | – | –
4600 kPa | 1076.6 | – | 1057.8 | 1048.4
5000 kPa | – | 1067.3 | – | –
5100 kPa | 1076.9 | – | 1058.2 | 1048.9
5600 kPa | 1077.3 | 1067.6 | 1058.5 | 1049.2
6100 kPa | 1077.6 | 1068 | 1058.9 | 1049.7
6500 kPa | 1077.9 | – | – | –
6600 kPa | – | 1068.4 | 1059.2 | 1050
7100 kPa | 1078.3 | 1068.7 | 1059.6 | 1050.4
7600 kPa | 1078.5 | 1069 | 1059.8 | 1050.7
8100 kPa | 1078.9 | 1069.4 | 1060.2 | 1051.2
8500 kPa | – | – | – | 1051.4
8600 kPa | 1079.2 | 1069.7 | 1060.6 | –
9100 kPa | 1079.5 | – | – | 1051.8
9200 kPa | – | 1070.1 | 1061 | –
9600 kPa | 1079.9 | 1070.4 | 1061.4 | 1052.2
10100 kPa | 1080.2 | 1070.7 | 1061.7 | 1052.6
10600 kPa | 1080.5 | 1071.1 | 1062.1 | –
10700 kPa | – | – | – | 1053.1
11000 kPa | – | 1071.3 | – | –
11100 kPa | 1080.8 | – | 1062.4 | 1053.6
11600 kPa | 1081.2 | – | 1062.7 | 1053.9
11700 kPa | – | 1071.7 | – | –
12100 kPa | 1081.5 | 1071.9 | 1063.1 | 1054.1
12600 kPa | 1081.8 | 1072.3 | 1063.5 | 1054.5
13100 kPa | 1082.1 | 1072.6 | 1063.8 | 1054.8
13600 kPa | 1082.4 | 1072.9 | 1064.1 | 1055.3
14100 kPa | – | – | 1064.5 | –
14200 kPa | 1082.8 | 1073.3 | – | 1055.6
14700 kPa | 1083 | 1073.6 | – | 1056
14800 kPa | – | – | 1064.9 | –
15100 kPa | – | – | 1065.1 | –
15200 kPa | 1083.4 | 1074 | – | 1056.3
15600 kPa | – | – | – | 1056.6
15700 kPa | 1083.7 | 1074.3 | 1065.5 | –
16200 kPa | – | – | 1065.8 | –
16300 kPa | 1084 | – | – | 1057.1
16400 kPa | – | 1074.8 | – | –
16700 kPa | – | – | 1066.2 | –
16800 kPa | 1084.3 | 1075.2 | – | 1057.3
17300 kPa | 1084.6 | 1075.5 | 1066.6 | 1057.7
17800 kPa | 1084.9 | 1075.8 | 1066.9 | 1058
18300 kPa | 1085.3 | 1076.1 | 1067.2 | 1058.3
18700 kPa | – | 1076.4 | 1067.4 | –
18800 kPa | 1085.5 | – | – | –
18900 kPa | – | – | – | 1058.8
19200 kPa | 1085.7 | 1076.7 | 1067.8 | 1059
19700 kPa | 1086 | 1076.9 | 1068 | 1059.3
20200 kPa | 1086.5 | 1077.3 | – | 1059.6
20300 kPa | – | – | 1068.5 | –
